Measurements from ChEMBL document CHEMBL1629573, “OPT-80 eliminates Clostridium difficile and is sparing of bacteroides species during treatment of C. difficile infection” (2009).
≈ marks a conversion by molar mass, not a printed value. Calls of active or inactive are those of the source. The rule behind the calls is not given here.

Legend:
Clostridioides difficile [1] = assay: Antimicrobial activity against Clostridium difficile obtained from patient with Clostridium difficile infection assessed as reduction in bacterial cytotoxin B in patients at 200 mg/kg, po BID measured at 21 to 28 days by the two-tailed Wilcoxon matched-pair, signed-rank test; assay type: functional, organism-based; set-up: dose 200 mg/kg
Clostridioides difficile [2] = assay: Antimicrobial activity against Clostridium difficile obtained from patient with Clostridium difficile infection assessed as reduction in bacterial cytotoxin B in patients at 100 mg/kg, po BID measured at 21 to 28 days by the two-tailed Wilcoxon matched-pair, signed-rank test; assay type: functional, organism-based; set-up: dose 100 mg/kg
Clostridioides difficile [3] = assay: Antimicrobial activity against Clostridium difficile obtained from patient with Clostridium difficile infection assessed as bacterial count per gram of wet stool at 50 mg/kg, po BID measured on day 4 by the two-tailed Wilcoxon matched-pair, signed-rank test; assay type: functional, organism-based; set-up: dose 50 mg/kg; settings: Feces
Clostridioides difficile [4] = assay: Antimicrobial activity against Clostridium difficile; assay type: functional
Bacteroides sp. [5] = assay: Antimicrobial activity against […] Bacteroides sp.; assay type: functional
Bacteroides sp. [6] = assay: Antimicrobial activity against […] gram-negative Bacteroides sp.; assay type: functional
Bacteroides [7] = assay: Antimicrobial activity against Bacteroides group obtained from patient with Clostridium difficile infection assessed as bacterial count per gram of wet stool at 50 mg/kg, po BID measured on day 10 by the two-tailed Wilcoxon matched-pair, signed-rank test; assay type: functional, Feces
Bacteroides [8] = assay: Antimicrobial activity against Bacteroides group obtained from patient with Clostridium difficile infection assessed as bacterial count per gram of wet stool at 100 mg/kg, po BID measured on day 10 by the two-tailed Wilcoxon matched-pair, signed-rank test; assay type: functional, Feces
Bacteroides [9] = assay: Antimicrobial activity against Bacteroides group obtained from patient with Clostridium difficile infection assessed as bacterial count per gram of wet stool at 200 mg/kg, po BID measured on day 10 by the two-tailed Wilcoxon matched-pair, signed-rank test; assay type: functional, Feces
Clostridioides difficile [10] = assay: Antimicrobial activity against Clostridium difficile obtained from patient with Clostridium difficile infection assessed as bacterial count per gram of wet stool at 50 mg/kg, po BID measured on day 10 by the two-tailed Wilcoxon matched-pair, signed-rank test; assay type: functional, organism-based; set-up: dose 50 mg/kg; settings: Feces
Clostridioides difficile [11] = assay: Antimicrobial activity against Clostridium difficile obtained from patient with Clostridium difficile infection assessed as bacterial count per gram of wet stool at 100 mg/kg, po BID measured on day 10 by the two-tailed Wilcoxon matched-pair, signed-rank test; assay type: functional, organism-based; set-up: dose 100 mg/kg; settings: Feces
Clostridioides difficile [12] = assay: Antimicrobial activity against Clostridium difficile obtained from patient with Clostridium difficile infection assessed as bacterial count per gram of wet stool at 200 mg/kg, po BID measured on day 10 by the two-tailed Wilcoxon matched-pair, signed-rank test; assay type: functional, organism-based; set-up: dose 200 mg/kg; settings: Feces
Clostridioides difficile [13] = assay: Antimicrobial activity against Clostridium difficile obtained from patient with Clostridium difficile infection assessed as bacterial count per gram of wet stool at 100 mg/kg, po BID measured on day 4 by the two-tailed Wilcoxon matched-pair, signed-rank test; assay type: functional, organism-based; set-up: dose 100 mg/kg; settings: Feces
Clostridioides difficile [14] = assay: Antimicrobial activity against Clostridium difficile obtained from patient with Clostridium difficile infection assessed as bacterial count per gram of wet stool at 200 mg/kg, po BID measured on day 4 by the two-tailed Wilcoxon matched-pair, signed-rank test; assay type: functional, organism-based; set-up: dose 200 mg/kg; settings: Feces
Clostridioides difficile [15] = assay: Antimicrobial activity against Clostridium difficile obtained from patient with Clostridium difficile infection assessed as bacterial count per gram of wet stool at 200 mg/kg, po BID measured on day 8 by the two-tailed Wilcoxon matched-pair, signed-rank test; assay type: functional, organism-based; set-up: dose 200 mg/kg; settings: Feces
Clostridioides difficile [16] = assay: Antimicrobial activity against Clostridium difficile obtained from patient with Clostridium difficile infection assessed as bacterial count per gram of wet stool at 50 mg/kg, po BID measured at 21 to 28 days by the two-tailed Wilcoxon matched-pair, signed-rank test; assay type: functional, Feces
Clostridioides difficile [17] = assay: Antimicrobial activity against Clostridium difficile obtained from patient with Clostridium difficile infection assessed as bacterial count per gram of wet stool at 100 mg/kg, po BID measured at 21 to 28 days by the two-tailed Wilcoxon matched-pair, signed-rank test; assay type: functional, Feces
Clostridioides difficile [18] = assay: Antimicrobial activity against Clostridium difficile obtained from patient with Clostridium difficile infection assessed as bacterial count per gram of wet stool at 200 mg/kg, po BID measured at 21 to 28 days by the two-tailed Wilcoxon matched-pair, signed-rank test; assay type: functional, Feces
Bacteroides [19] = assay: Antimicrobial activity against Bacteroides group obtained from patient with Clostridium difficile infection assessed as bacterial count per gram of wet stool at 125 mg/kg, po administered QID measured on day 10 by the two-tailed Wilcoxon matched-pair, signed-rank test; assay type: functional, Feces
Clostridioides difficile [20] = assay: Antimicrobial activity against Clostridium difficile obtained from patient with Clostridium difficile infection assessed as bacterial count per gram of wet stool at 125 mg/kg, po BID measured on day 10 by the two-tailed Wilcoxon matched-pair, signed-rank test; assay type: functional, organism-based; set-up: dose 125 mg/kg; settings: Feces
Clostridioides difficile [21] = assay: Antimicrobial activity against Clostridium difficile obtained from patient with Clostridium difficile infection assessed as bacterial count per gram of wet stool at 125 mg/kg, po BID measured on day 4 by the two-tailed Wilcoxon matched-pair, signed-rank test; assay type: functional, organism-based; set-up: dose 125 mg/kg; settings: Feces
Clostridioides difficile [22] = assay: Antimicrobial activity against Clostridium difficile obtained from patient with Clostridium difficile infection assessed as bacterial count per gram of wet stool at 125 mg/kg, po BID measured at 21 to 28 days by the two-tailed Wilcoxon matched-pair, signed-rank test; assay type: functional, Feces

`CCc1c(Cl)c(O)c(Cl)c(O)c1C(=O)O[C@H]1[C@H](O)[C@H](OC)[C@H](OC/C2=C\C=C\C[C@H](O)/C(C)=C/[C@H](CC)[C@@H](O[C@@H]3OC(C)(C)[C@@H](OC(=O)C(C)C)[C@H](O)[C@@H]3O)/C(C)=C/C(C)=C/C[C@@H]([C@@H](C)O)OC2=O)O[C@@H]1C` [FIDAXOMICIN] was tested, and the Activity (Clostridioides difficile [1]) was “Active”, the Activity (Clostridioides difficile [2]) was “Active” and the Activity (Clostridioides difficile [3]) was “Active”. For the same molecule, the MIC90 (Clostridioides difficile [4]) was 0.12 µg/mL (≈ 0.113 µM), the MIC90 (Bacteroides sp. [5]) was > 1020 µg/mL and the MIC90 (Bacteroides sp. [6]) was > 1020 µg/mL. It also gave a log10cfu (Bacteroides [7]) of 8.2, a log10cfu (Bacteroides [8]) of 6.3 and a log10cfu (Bacteroides [9]) of 7.3. The Activity (Clostridioides difficile [10]) was “Active”, the Activity (Clostridioides difficile [11]) was “Active” and the Activity (Clostridioides difficile [12]) was “Active”. The Activity (Clostridioides difficile [13]) was “Active”, the Activity (Clostridioides difficile [14]) was “Active” and the Activity (Clostridioides difficile [15]) was “Active”. It also gave a log10cfu (Clostridioides difficile [16]) of 3.9, a log10cfu (Clostridioides difficile [17]) of 3.6 and a log10cfu (Clostridioides difficile [18]) of 3.1.

`CN[C@H](CC(C)C)C(=O)N[C@H]1C(=O)N[C@@H](CC(N)=O)C(=O)N[C@H]2C(=O)N[C@H]3C(=O)N[C@H](C(=O)N[C@H](C(=O)O)c4cc(O)cc(O)c4-c4cc3ccc4O)[C@H](O)c3ccc(c(Cl)c3)Oc3cc2cc(c3O[C@@H]2O[C@H](CO)[C@@H](O)[C@H](O)[C@H]2O[C@H]2C[C@](C)(N)[C@H](O)[C@H](C)O2)Oc2ccc(cc2Cl)[C@H]1O` [VANCOMYCIN] was tested, and the log10cfu (Bacteroides [19]) was 3.6, the Activity (Clostridioides difficile [20]) was “Active” and the Activity (Clostridioides difficile [21]) was “Active”. It also gave a log10cfu (Clostridioides difficile [22]) of 5.4.
